The values that follow come from patent US4210749A, “Substituted 1,2,4,5-tetrahydro-3H,3 benzazepines” (priority 1979, dated 1980).

Structures are written as SMILES. Where a name gives a salt, the structure may show the parent alone.

A short description of data set [1]: Analgesic activity, hot plate method. In kind it is in vivo. (Hot-plate and tail-flick tests time the reaction to a heat stimulus.)
The nature of data set [2]: Analgesic activity, writhing method. In kind it is in vivo.
Data set [3] in a line: I.P. symptomatology (highest tolerated dose, median lethal dose), Table IV. In kind it is in vivo. The settings on record: in vivo, ip; for MTD: read-out: HTD (highest tolerated dose).
The next data set has as its system sciatic block. The data set is described as follows: Local anesthetic sciatic block, Table IV. In kind it is in vivo. Conditions: 1%.
Data set [4] can be described thus: Narcotic antagonism I.P., Table IV. In kind it is in vivo.
Data set [5] has as its system isolated segments of guinea pig ileum (acetylcholine). As to the kind of experiment: Anticholinergic activity: block of acetylcholine in isolated segments of guinea pig ileum.
Data set [6] deals with isolated segments of guinea pig ileum (histamine). The data set is described as follows: Antihistaminic activity: block of histamine in isolated segments of guinea pig ileum.
The nature of data set [7]: Mouse tail stimulation (MST), Table IV. On the set-up: unit not given here. In kind it is in vivo. Conditions: S.C.
Data set [8] in a line: Analgesic activity in hot plate and writhing tests, overall comparison. The settings on record: for Analgesic efficacy by route of administration: oral vs parenteral. In general terms: Writhing tests count abdominal constrictions after an irritant is injected.
Data set [9] can be described thus: in vivo.
The nature of data set [10]: in vivo. This is another data set of the same source.
For a further data set, the system named is morphine analgesia. In kind it is in vivo, rat. Conditions: rat, in vivo, sc.

A word on the ED50: it is the dose at which the effect has come halfway, by size or by number of responders. The LD50 is the dose expected to kill half of the subjects tested. Turning to `CCN1CCc2ccc(OC)cc2CC1` [Example 20, 3-Ethyl-7-methoxy-1,2,4,5-tetrahydro-3H,3-benzazepine], the ED50 in data set [1] (ip) was 15 mg/kg; in data set [1] (po) it was more than 125 mg/kg; in data set [2] (po), more than 125 mg/kg; in data set [2] (sc), more than 32 mg/kg. The compound further gave a median lethal dose (LD50) in data set [3] of 60 mg/kg. The MTD in data set [3] was 1 mg/kg. In the data set on sciatic block, the “Local Anesthetic Sciatic Block” value was “Positive”. Besides, in [4], the “Narcotic Antagonism” value was “Negative”.
As for `c1ccc2c(c1)CCN(CC1CC1)CC2` [Example 37, 3-Cyclopropylmethyl-1,2,4,5-tetrahydro-3H,3-benzazepine hydrochloride], the ED50 is 12 mg/kg in [1] (ip), 37 mg/kg in data set [1] (po), 49 mg/kg in data set [2] (po) and more than 18 mg/kg in [2] (sc). Besides, in data set [2] (oral route), the “Writhing test activity relative to pentazocine” value is “approximately twice as active as pentazocine”. In addition, the “Conc. for 50% block of Acetylcholine” value in data set [5] is 540 μg/20 ml. The “Conc. for 50% block of Histamine” value in data set [6] came out at 20 μg/20 ml. Moreover, the LD50 in [3] turned out to be 60 mg/kg. Besides, the MTD in data set [3] came to 10 mg/kg. The “MST (mouse tail stimulation)” value in data set [7] is reported as 10. In addition, the “Narcotic Antagonism” value in data set [4] is “Negative”. The “Analgesic efficacy by route of administration” value in data set [8] is “active by the oral route”.
For the compound `CN1[C@@H]2CC[C@H]1C[C@@H](OC(=O)C(CO)c1ccccc1)C2` (stereo partly drawn) [Atropine, reference compound], the “Conc. for 50% block of Acetylcholine” value in data set [5] amounted to 0.0035 μg/20 ml. Further, the “Conc. for 50% block of Histamine” value in [6] was determined as 37 μg/20 ml.
Take `COc1ccc2c(c1)CCNCC2` [Example 1, 7-Methoxy-1,2,4,5-tetrahydro-3H,3-benzazepine]: in data set [3], the LD50 turned out to be 60 mg/kg and the MTD was 3 mg/kg. Also, the “MST (mouse tail stimulation)” value in [7] is reported as more than 3. Besides, the “Local Anesthetic Sciatic Block” value in the data set on sciatic block is recorded as “Positive”. Also, the “Narcotic Antagonism” value in data set [4] is recorded as “Negative”.
As for `COc1ccc2c(c1)CC(C)N(CCc1ccccc1)CC2` (stereo not drawn) [Example 36, 8-Methoxy-2-methyl-3-phenethyl-1,2,4,5-tetrahydro-3H,3-benzazepine hydrochloride], in data set [3], the median lethal dose (LD50) was determined as 60 mg/kg and the MTD turned out to be 10 mg/kg. Also, the “MST (mouse tail stimulation)” value in data set [7] came out at 10. The “Local Anesthetic Sciatic Block” value with sciatic block was “Insoluble”. In addition, the “Narcotic Antagonism” value in data set [4] is “Negative”.
In general, NOAEL refers to the highest tested level that showed no adverse finding. Turning to `COc1ccc2c(c1)CCN(CCN1CCN(c3ccccc3)CC1)CC2` [Example 31, 7-Methoxy-3-[2-(4-phenyl-1-piperazinyl)ethyl]-1,2,4,5-tetrahydro-3H,3-benzazepine], the ED50 in data set [1] (ip) was approximately 8 mg/kg; in data set [1] (po), approximately 80 mg/kg; in data set [2] (po), more than 100 mg/kg. Also, the LD50 is 80 mg/kg in data set [3], approximately 80 mg/kg in “in vivo [10]” (ip) and approximately 300 mg/kg in “in vivo [10]” (po). Besides, the MTD in [3] was 30 mg/kg. In data set [7], the “MST (mouse tail stimulation)” value worked out at 20. Further, the “Local Anesthetic Sciatic Block” value with sciatic block is listed as “Positive”. In addition, the “Narcotic Antagonism” value in data set [4] is listed as “Negative”. The NOAEL in “in vivo [9]” (ip) came to 32 mg/kg; in “in vivo [9]” (po) it was 100 mg/kg. Also, in data set [8], the Analgesic activity ranking result is on record as “most active compounds”. Also, in [8], the “Separation between effective dose and toxic or lethal doses” value is “greatest separation between effective dose and toxic or lethal doses”.
With `CC(=O)Oc1ccc2c(c1)CCN(CC=C(C)C)CC2` [Example 5, 7-Acetoxy-3-(3,3-dimethylallyl)-1,2,4,5-tetrahydro-3H,3-benzazepine hydrochloride], in data set [3], the LD50 is approximately 200 mg/kg and the MTD is approximately 10 mg/kg. Further, in data set [7], the “MST (mouse tail stimulation)” value is more than 30. Also, the “Local Anesthetic Sciatic Block” value in the data set with sciatic block is “Positive”. Also, the “Narcotic Antagonism” value in data set [4] was “Positive”.
Regarding `CC(C)=CCN1CCc2ccc(O)cc2CC1C` (stereo not drawn) [Example 34, 3-(3,3-Dimethylallyl)-8-hydroxy-2-methyl-1,2,4,5-tetrahydro-3H,3-benzazepine hydrochloride], in [3], the LD50 is 60 mg/kg and the MTD came to 10 mg/kg. Moreover, the “MST (mouse tail stimulation)” value in [7] is reported as more than 40. Further, the “Local Anesthetic Sciatic Block” value with sciatic block is on record as “Positive”. Besides, the “Narcotic Antagonism” value in data set [4] is “Positive”.
`C=CCN1CCc2ccc(OC)cc2CC1C` (stereo not drawn) [Example 38, 3-Allyl-8-methoxy-2-methyl-1,2,4,5-tetrahydro-3H,3-benzazepine hydrochloride]: in data set [3], the LD50 is 200 mg/kg and the MTD amounted to 10 mg/kg. The “MST (mouse tail stimulation)” value in data set [7] was more than 10. The “Narcotic Antagonism” value in data set [4] is listed as “Positive”.
Consider `C=CCN1CC[C@]23c4c5ccc(O)c4O[C@H]2[C@@H](O)C=C[C@H]3[C@H]1C5` [Nalorphine, reference compound], for which, in the data set on morphine analgesia, the “Antagonism of Morphine Analgesia, times more active than compounds listed above” value was 20-100 times.
Take `Oc1ccc2c(c1)CCN(CCc1ccccc1)CC2` [Example 25, 7-Hydroxy-3-phenethyl-1,2,4,5-tetrahydro-3H,3-benzazepine]: the ED50 in data set [1] (ip) was 26 mg/kg; in [1] (po), more than 178 mg/kg; in [2] (po), more than 178 mg/kg. Further, the NOAEL in the data set “in vivo [9]” (po) was 178 mg/kg. The same compound gave an LD50 in “in vivo [10]” (po) of more than 1000 mg/kg.
Consider `CC1Cc2cc(O)ccc2CCN1CC1CC1` (stereo not drawn) [Example 41, 3-Cyclopropylmethyl-8-hydroxy-2-methyl-1,2,4,5-tetrahydro-3H,3-benzezepine hydrochloride], for which, in data set [3], the median lethal dose (LD50) was approximately 60 mg/kg and the MTD was approximately 3 mg/kg. In addition, in data set [7], the “MST (mouse tail stimulation)” value is listed as more than 30. Also, the “Local Anesthetic Sciatic Block” value in the data set on sciatic block is reported as “Positive”. In addition, the “Narcotic Antagonism” value in [4] is “Negative”.
Turning to `COc1ccc2c(c1)CCN(CC1CCCC1)CC2` [Example 12, 3-Cyclopentylmethyl-7-methoxy-1,2,4,5-tetrahydro-3H,3-benzazepine], the ED50 in data set [1] (ip) was 45 mg/kg; in [1] (po), more than 178 mg/kg; in data set [2] (po), more than 178 mg/kg.
In the case of `C=CCN1CCc2ccc(O)cc2CC1` [Example 11, 3-Allyl-7-hydroxy-1,2,4,5-tetrahydro-3H,3-benzazepine], the ED50 in data set [1] (ip) was 35 mg/kg; in [1] (po) it was more than 316 mg/kg; in [2] (po), more than 316 mg/kg. Besides, the LD50 in [3] is 50 mg/kg. Further, the MTD in data set [3] was found to be 20 mg/kg. Also, in the data set on sciatic block, the “Local Anesthetic Sciatic Block” value was “Positive”. Further, the “Narcotic Antagonism” value in [4] is given as “Positive”.
`CCCN1CCc2ccc(OC)cc2CC1` [Example 22, 7-Methoxy-3-n-propyl-1,2,4,5-tetrahydro-3H,3-benzazepine]: the ED50 was 26 mg/kg in [1] (ip), more than 316 mg/kg in data set [1] (po), more than 316 mg/kg in data set [2] (po) and more than 32 mg/kg in [2] (sc). For the same compound, the LD50 in data set [3] is 50 mg/kg. Further, the MTD in data set [3] is 30 mg/kg. Moreover, the “Narcotic Antagonism” value in data set [4] is listed as “Positive”.
Regarding `Oc1ccc2c(c1)CCN(CC=Cc1ccccc1)CC2` [Example 29, 7-Hydroxy-3-(3-phenylallyl)-1,2,4,5-tetrahydro-3H,3-benzazepine], the ED50 in data set [1] (ip) was 230 mg/kg; in data set [1] (po), more than 1000 mg/kg; in data set [2] (po), 210 mg/kg. For the same compound, the NOAEL in “in vivo [9]” (ip) was 300 mg/kg; in the data set “in vivo [9]” (po) it was 1000 mg/kg. This compound also returned an LD50 in “in vivo [10]” (po) of more than 1000 mg/kg.
On to `COc1ccc2c(c1)CCN(C(C)Cc1ccccc1)CC2` (racemic) [Example 26, 7-Methoxy-3-(1-methyl-2-phenylethyl)-1,2,4,5-tetrahydro-3H,3-benzazepine], for which, in data set [5], the “Conc. for 50% block of Acetylcholine” value was determined as 94 μg/20 ml. The “Conc. for 50% block of Histamine” value in data set [6] was determined as 54 μg/20 ml.
As for `COc1ccc2c3c1O[C@H]1[C@@H](O)C=C[C@H]4[C@@H](C2)N(C)CC[C@@]341` [Codeine, reference compound], the ED50 in [1] (ip) is 12 mg/kg; in data set [1] (po) it was 20 mg/kg; in data set [2] (po), 17 mg/kg.
As to `COc1ccc2c(c1)CCN(CC1CC1)CC2` [Example 7, 3-Cyclopropylmethyl-7-methoxy-1,2,4,5-tetrahydro-3H,3-benzazepine], in [5], the “Conc. for 50% block of Acetylcholine” value is given as 220 μg/20 ml. Further, the “Conc. for 50% block of Histamine” value in data set [6] stood at 20 μg/20 ml. In data set [3], the median lethal dose (LD50) stood at 100 mg/kg and the MTD worked out at 40 mg/kg. In the data set with sciatic block, the “Local Anesthetic Sciatic Block” value was “Positive”. In addition, the “Narcotic Antagonism” value in data set [4] is given as “Negative”.
In the case of `CC(C)=CCN1CCC2(C)c3cc(O)ccc3CC1C2C` (stereo not drawn) [Pentazocine, reference compound], the figures for the ED50 in [1] (ip), in data set [1] (po) and in [2] (po) were 100 mg/kg, more than 316 mg/kg and 70 mg/kg, respectively. The NOAEL in “in vivo [9]” (ip) and in the data set “in vivo [9]” (po) was 316 mg/kg throughout. The LD50 was more than 600 mg/kg in “in vivo [10]” (ip) and approximately 800 mg/kg in “in vivo [10]” (po).
Consider `CCCN1CCc2ccc(O)cc2CC1` [Example 23, 7-Hydroxy-3-n-propyl-1,2,4,5-tetrahydro-3H,3-benzazepine], for which the “Conc. for 50% block of Acetylcholine” value in [5] is recorded as more than 1000 μg/20 ml. In data set [6], the “Conc. for 50% block of Histamine” value was 75 μg/20 ml. Moreover, in [3], the LD50 came to 50 mg/kg and the MTD turned out to be 20 mg/kg. Besides, the “Local Anesthetic Sciatic Block” value with sciatic block is reported as “Positive”. Also, the “Narcotic Antagonism” value in data set [4] was “Positive”.
As to `COc1ccc2c(c1)CCN(C)CC2` [Example 18, 7-Methoxy-3-methyl-1,2,4,5-tetrahydro-3H,3-benzazepine], the median effective dose (ED50) in [1] (ip) was 20 mg/kg; in data set [1] (po), 140 mg/kg; in data set [2] (po) it was more than 180 mg/kg; in data set [2] (sc), more than 32 mg/kg. Besides, the LD50 in data set [3] came out at 80 mg/kg. Moreover, the MTD in data set [3] is 25 mg/kg. Besides, the “Narcotic Antagonism” value in [4] is on record as “Negative”. In addition, the “Analgesic efficacy by route of administration” value in data set [8] was “active by the oral route”.
